The target in test [1] is T1, 5-hydroxytryptamine receptor 1A (Homo sapiens, UniProt P08908).
T1 sequence (P08908 whole entry): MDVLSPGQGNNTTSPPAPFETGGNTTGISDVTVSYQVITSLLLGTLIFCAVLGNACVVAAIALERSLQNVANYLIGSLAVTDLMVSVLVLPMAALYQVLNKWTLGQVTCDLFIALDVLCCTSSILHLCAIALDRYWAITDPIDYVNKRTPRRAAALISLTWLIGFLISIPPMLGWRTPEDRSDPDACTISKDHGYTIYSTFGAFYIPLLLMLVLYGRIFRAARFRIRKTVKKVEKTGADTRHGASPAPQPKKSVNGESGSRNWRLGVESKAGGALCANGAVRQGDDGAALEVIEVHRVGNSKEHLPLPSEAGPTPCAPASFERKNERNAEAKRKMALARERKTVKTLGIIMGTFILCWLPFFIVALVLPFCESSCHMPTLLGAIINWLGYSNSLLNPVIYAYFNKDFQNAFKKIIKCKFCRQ

Test [2] deals with T2, Alpha-1A adrenergic receptor (Homo sapiens, UniProt P35348).
T2 sequence (P35348 whole entry): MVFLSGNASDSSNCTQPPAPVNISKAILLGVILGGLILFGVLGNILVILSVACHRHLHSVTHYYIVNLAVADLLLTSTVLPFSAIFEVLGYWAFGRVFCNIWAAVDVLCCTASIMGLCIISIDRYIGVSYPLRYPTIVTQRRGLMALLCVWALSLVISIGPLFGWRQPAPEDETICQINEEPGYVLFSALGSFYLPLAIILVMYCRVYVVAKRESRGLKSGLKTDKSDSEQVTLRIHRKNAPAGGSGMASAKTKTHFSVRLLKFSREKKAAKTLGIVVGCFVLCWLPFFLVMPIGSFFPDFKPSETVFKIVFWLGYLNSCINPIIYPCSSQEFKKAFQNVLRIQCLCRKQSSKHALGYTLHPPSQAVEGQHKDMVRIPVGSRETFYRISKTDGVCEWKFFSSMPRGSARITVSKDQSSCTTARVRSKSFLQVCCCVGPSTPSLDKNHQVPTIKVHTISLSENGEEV
It counts as functional, cell-based.

Test [3] deals with 3',5'-cyclic-AMP phosphodiesterase 4A (Homo sapiens, UniProt P27815). It counts as functional.
Test [4] addresses T3, Thromboxane A2 receptor (Homo sapiens, UniProt P21731).
T3 sequence (P21731 whole entry): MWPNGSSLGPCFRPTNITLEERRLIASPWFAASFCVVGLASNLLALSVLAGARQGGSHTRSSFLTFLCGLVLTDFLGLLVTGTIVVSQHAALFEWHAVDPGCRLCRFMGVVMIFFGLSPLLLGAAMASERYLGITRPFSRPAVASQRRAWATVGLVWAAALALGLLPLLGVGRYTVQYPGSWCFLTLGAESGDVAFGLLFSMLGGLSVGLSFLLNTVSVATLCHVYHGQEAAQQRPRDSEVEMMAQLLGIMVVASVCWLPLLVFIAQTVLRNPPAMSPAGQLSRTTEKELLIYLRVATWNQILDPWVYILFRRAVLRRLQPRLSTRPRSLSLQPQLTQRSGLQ
In kind it is functional, cell-based.

Test [5] has as its target T4, Alpha-2A adrenergic receptor (Homo sapiens, UniProt P08913).
T4 sequence (P08913 whole entry): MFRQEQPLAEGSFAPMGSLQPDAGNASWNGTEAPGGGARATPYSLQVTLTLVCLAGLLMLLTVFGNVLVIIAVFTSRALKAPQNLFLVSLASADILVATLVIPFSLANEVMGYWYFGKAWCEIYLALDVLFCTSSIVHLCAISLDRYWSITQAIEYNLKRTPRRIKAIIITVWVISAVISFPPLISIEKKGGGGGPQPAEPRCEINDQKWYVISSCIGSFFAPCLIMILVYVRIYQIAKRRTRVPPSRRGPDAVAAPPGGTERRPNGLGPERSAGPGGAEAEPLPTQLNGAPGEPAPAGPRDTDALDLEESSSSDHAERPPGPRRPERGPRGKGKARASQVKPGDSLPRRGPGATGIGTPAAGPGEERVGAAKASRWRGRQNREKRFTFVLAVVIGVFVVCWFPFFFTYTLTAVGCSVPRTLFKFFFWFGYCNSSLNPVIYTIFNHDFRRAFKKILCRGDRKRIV

In test [6] the target is T3, Thromboxane A2 receptor. In kind it is functional, cell-based. The source holds these as a separate data set.
For a further test, the target named is Acetylcholinesterase (Homo sapiens, UniProt P22303). In kind it is functional.
Test [7] has as its target T5, Muscarinic acetylcholine receptor M2 (Homo sapiens, UniProt P08172).
T5 sequence (P08172 whole entry): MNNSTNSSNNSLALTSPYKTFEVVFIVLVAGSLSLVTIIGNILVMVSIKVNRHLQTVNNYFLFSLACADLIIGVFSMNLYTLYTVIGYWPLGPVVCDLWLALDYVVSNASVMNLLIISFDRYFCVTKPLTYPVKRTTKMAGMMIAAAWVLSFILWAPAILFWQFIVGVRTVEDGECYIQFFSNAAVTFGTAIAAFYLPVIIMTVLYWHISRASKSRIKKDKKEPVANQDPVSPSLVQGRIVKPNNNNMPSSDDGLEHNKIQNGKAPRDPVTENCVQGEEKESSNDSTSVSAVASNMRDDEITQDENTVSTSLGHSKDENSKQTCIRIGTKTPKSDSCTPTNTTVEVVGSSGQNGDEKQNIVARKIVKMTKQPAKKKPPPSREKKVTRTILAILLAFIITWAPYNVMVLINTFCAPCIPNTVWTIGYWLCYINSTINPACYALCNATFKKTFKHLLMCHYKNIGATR

Test [8] addresses 5-hydroxytryptamine receptor 2B (Homo sapiens, UniProt P41595). It counts as functional, cell-based.
For another test, the target named is D(1A) dopamine receptor (Homo sapiens, UniProt P21728).
The next test addresses T6, Adenosine receptor A3 (Homo sapiens, UniProt P0DMS8).
T6 sequence (P0DMS8 whole entry): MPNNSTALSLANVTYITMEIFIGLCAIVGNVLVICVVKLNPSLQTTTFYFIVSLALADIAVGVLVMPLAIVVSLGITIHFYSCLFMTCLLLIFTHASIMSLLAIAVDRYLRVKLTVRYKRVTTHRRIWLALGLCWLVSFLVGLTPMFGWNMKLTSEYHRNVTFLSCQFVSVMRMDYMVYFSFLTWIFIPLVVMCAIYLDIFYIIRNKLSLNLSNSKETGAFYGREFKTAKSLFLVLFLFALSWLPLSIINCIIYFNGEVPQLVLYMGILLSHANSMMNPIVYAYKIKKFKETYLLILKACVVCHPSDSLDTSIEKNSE

The target in test [9] is T2, Alpha-1A adrenergic receptor. In kind it is functional, cell-based. This is another data set of the same source.
A further test concerns the target Prothrombin (Homo sapiens, UniProt P00734). In kind it is functional.
Also: assay procedure not described here.

D(1A) dopamine receptor, sequence (P21728 whole entry): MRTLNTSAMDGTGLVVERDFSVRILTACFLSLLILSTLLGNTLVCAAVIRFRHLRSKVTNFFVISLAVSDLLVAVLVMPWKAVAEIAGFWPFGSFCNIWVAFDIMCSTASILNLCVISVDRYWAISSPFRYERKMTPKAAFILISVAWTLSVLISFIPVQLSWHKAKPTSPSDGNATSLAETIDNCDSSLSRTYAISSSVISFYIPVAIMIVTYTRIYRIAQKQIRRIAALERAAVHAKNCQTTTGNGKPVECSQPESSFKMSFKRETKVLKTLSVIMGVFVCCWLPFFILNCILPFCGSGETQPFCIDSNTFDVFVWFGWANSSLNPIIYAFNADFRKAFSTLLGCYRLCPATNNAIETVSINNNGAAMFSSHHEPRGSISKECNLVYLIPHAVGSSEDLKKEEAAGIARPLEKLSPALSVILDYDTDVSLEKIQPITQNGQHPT
5-hydroxytryptamine receptor 2B, sequence (P41595 whole entry): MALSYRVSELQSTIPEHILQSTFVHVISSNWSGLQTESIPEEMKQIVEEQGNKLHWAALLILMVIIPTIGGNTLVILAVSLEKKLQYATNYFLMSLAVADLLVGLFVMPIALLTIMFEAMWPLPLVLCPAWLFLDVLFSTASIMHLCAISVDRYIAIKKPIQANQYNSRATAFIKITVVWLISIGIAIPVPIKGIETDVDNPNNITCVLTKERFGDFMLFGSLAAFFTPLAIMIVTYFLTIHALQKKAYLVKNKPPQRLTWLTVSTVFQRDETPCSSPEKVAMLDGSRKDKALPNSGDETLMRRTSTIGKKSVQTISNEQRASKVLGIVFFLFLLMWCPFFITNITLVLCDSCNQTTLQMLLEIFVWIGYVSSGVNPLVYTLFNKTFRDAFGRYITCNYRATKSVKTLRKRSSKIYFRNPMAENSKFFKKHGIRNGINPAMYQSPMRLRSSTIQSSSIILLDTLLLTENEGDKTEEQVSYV
3',5'-cyclic-AMP phosphodiesterase 4A, sequence (P27815 whole entry): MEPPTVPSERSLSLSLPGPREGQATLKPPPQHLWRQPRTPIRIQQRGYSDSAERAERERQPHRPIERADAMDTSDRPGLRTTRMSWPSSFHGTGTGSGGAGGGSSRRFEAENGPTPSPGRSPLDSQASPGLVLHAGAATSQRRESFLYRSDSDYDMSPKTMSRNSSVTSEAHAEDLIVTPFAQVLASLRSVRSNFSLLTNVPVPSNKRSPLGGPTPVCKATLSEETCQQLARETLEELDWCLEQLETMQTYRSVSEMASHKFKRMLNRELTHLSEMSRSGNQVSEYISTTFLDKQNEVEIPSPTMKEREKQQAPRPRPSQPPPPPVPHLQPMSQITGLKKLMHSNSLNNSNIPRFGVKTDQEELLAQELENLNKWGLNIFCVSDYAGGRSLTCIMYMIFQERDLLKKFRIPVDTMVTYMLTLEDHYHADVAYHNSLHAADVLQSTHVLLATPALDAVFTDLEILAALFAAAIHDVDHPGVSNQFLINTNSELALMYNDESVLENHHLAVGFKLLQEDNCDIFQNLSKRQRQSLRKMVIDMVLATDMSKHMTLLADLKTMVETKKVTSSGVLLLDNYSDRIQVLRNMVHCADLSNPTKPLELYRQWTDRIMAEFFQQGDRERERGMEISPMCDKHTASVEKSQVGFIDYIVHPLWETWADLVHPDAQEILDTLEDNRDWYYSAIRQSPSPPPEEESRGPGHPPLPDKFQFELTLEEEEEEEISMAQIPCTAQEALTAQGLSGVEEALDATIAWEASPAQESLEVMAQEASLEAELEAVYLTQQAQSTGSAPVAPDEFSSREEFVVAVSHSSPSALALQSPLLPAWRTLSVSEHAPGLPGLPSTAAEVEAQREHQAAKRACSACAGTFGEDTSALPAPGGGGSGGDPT
Acetylcholinesterase, sequence (P22303 whole entry): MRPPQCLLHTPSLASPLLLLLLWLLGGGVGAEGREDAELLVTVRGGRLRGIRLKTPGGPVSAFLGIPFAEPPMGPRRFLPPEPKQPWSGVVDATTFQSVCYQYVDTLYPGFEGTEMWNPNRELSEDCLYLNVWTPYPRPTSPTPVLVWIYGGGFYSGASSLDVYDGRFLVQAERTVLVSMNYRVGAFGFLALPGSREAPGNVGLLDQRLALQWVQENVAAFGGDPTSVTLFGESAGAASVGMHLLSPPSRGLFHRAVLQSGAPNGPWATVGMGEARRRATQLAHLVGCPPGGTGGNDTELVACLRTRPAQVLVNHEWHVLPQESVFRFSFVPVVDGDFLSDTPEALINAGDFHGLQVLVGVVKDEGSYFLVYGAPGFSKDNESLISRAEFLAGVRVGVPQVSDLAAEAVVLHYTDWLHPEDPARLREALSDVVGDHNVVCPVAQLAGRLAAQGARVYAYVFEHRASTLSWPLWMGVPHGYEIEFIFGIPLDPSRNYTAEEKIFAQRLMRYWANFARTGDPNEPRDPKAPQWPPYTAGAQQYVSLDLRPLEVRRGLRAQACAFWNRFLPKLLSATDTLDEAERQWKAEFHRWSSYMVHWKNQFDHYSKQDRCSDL

A word on the AC50: it is the concentration giving half of the maximal activity seen. A lower AC50 goes with greater potency. Turning to `NC(=O)NCCC[C@H](N)C(=O)O` [L-CITRULLINE], the concentration at half-maximal activity (AC50) (in test [1]; in [2]; in [3]; at Thromboxane A2 receptor [4]; in test [5]; at Thromboxane A2 receptor [6]) was above 30 µM each time. In addition, the AC50 (at Acetylcholinesterase; in [7]; in [8]; at D(1A) dopamine receptor; at Adenosine receptor A3; in [9]) was above 30 µM each time. This compound also displayed an AC50 at Prothrombin above 30 µM.

`CC(=O)O[C@H]1C[C@H](O[C@H]2[C@@H](O)C[C@H](O[C@H]3[C@@H](O)C[C@H](O[C@H]4CC[C@@]5(C)[C@H](CC[C@@H]6[C@@H]5C[C@@H](O)[C@]5(C)[C@@H](C7=CC(=O)OC7)CC[C@]65O)C4)O[C@@H]3C)O[C@@H]2C)O[C@H](C)[C@H]1O[C@@H]1O[C@H](CO)[C@@H](O)[C@H](O)[C@H]1O` [LANATOSIDE C]: the AC50 (in test [1]; in test [2]; in test [3]; at Thromboxane A2 receptor [4]; in test [5]; on Thromboxane A2 receptor [6]) was above 30 µM in each case. In addition, the concentration at half-maximal activity (AC50) (at Acetylcholinesterase; in test [7]; in test [8]; at D(1A) dopamine receptor; on Adenosine receptor A3; in test [9]) was above 30 µM throughout. At Prothrombin, this compound registered a concentration at half-maximal activity (AC50) above 30 µM.

Regarding `Nc1nc(N)nc(Nc2ccc([As]3SCC(CO)S3)cc2)n1` (centres undefined) [MELARSOPROL], the AC50 is above 30 µM in test [1]; above 30 µM in test [2]; 14.5 µM in test [3]; above 30 µM on Thromboxane A2 receptor [4]; above 30 µM in test [5]; above 30 µM on Thromboxane A2 receptor [6]. The AC50 at Acetylcholinesterase was above 30 µM; in [7], above 30 µM; in test [8], above 30 µM; at D(1A) dopamine receptor it was above 30 µM; at Adenosine receptor A3, 1.92 µM; in test [9], above 30 µM. In addition, the AC50 on Prothrombin was above 30 µM.

Regarding `CC[N+](C)(CC)CCOC(=O)C1c2ccccc2Oc2ccccc21` [METHANTHELINE], the half-maximal activity concentration (AC50) (in test [1]; in test [2]; in test [3]; on Thromboxane A2 receptor [4]; in [5]; at Thromboxane A2 receptor [6]) was above 30 µM throughout. The half-maximal activity concentration (AC50) was above 30 µM at Acetylcholinesterase; 0.0126 µM in test [7]; above 30 µM in test [8]; above 30 µM on D(1A) dopamine receptor; above 30 µM at Adenosine receptor A3; above 30 µM in [9]. Further, the half-maximal activity concentration (AC50) on Prothrombin was above 30 µM.

As for `CO[C@H]1[C@@H](O)C[C@H](O[C@H]2[C@@H](O)C[C@H](O[C@H]3[C@@H](O)C[C@H](O[C@H]4CC[C@@]5(C)[C@H](CC[C@@H]6[C@@H]5C[C@@H](O)[C@]5(C)[C@@H](C7=CC(=O)OC7)CC[C@]65O)C4)O[C@@H]3C)O[C@@H]2C)O[C@@H]1C` [METILDIGOXIN], the half-maximal activity concentration (AC50) (in test [1]; in test [2]; in [3]; on Thromboxane A2 receptor [4]; in test [5]; at Thromboxane A2 receptor [6]) was above 30 µM in each case. Besides, the half-maximal activity concentration (AC50) (on Acetylcholinesterase; in test [7]; in [8]; on D(1A) dopamine receptor; on Adenosine receptor A3; in [9]) was above 30 µM in each case. The AC50 on Prothrombin was above 30 µM.

In the case of `CC1(C)S[C@@H]2[C@H](NC(=O)[C@H](NC(=O)N3CCN(S(C)(=O)=O)C3=O)c3ccccc3)C(=O)N2[C@H]1C(=O)O` [MEZLOCILLIN], the AC50 (in [1]; in test [2]; in test [3]; on Thromboxane A2 receptor [4]; in test [5]; at Thromboxane A2 receptor [6]) was above 30 µM each time. The concentration at half-maximal activity (AC50) (on Acetylcholinesterase; in test [7]; in test [8]; at D(1A) dopamine receptor; at Adenosine receptor A3; in test [9]) was above 30 µM throughout. The concentration at half-maximal activity (AC50) at Prothrombin is above 30 µM.

As for `CCOC(=O)[C@H](CCc1ccccc1)N[C@@H](C)C(=O)N1Cc2cc(OC)c(OC)cc2C[C@H]1C(=O)O` [MOEXIPRIL], the AC50 (in [1]; in test [2]; in [3]; on Thromboxane A2 receptor [4]; in test [5]; at Thromboxane A2 receptor [6]) was above 30 µM in each case. For the same compound, the AC50 (on Acetylcholinesterase; in test [7]; in [8]; on D(1A) dopamine receptor; on Adenosine receptor A3; in test [9]) was above 30 µM each time. At Prothrombin, this compound yielded a concentration at half-maximal activity (AC50) above 30 µM.

`CC(c1ccc(Cl)c(Cl)c1)N1N=C(N)CC1=O` (centres undefined) [MUZOLIMINE]: the half-maximal activity concentration (AC50) (in test [1]; in test [2]; in test [3]; at Thromboxane A2 receptor [4]; in [5]; on Thromboxane A2 receptor [6]) was above 30 µM in each case. For the same compound, the half-maximal activity concentration (AC50) (at Acetylcholinesterase; in test [7]; in test [8]; at D(1A) dopamine receptor; at Adenosine receptor A3; in test [9]) was above 30 µM throughout. Besides, the AC50 on Prothrombin was above 30 µM.

The values above are taken from ChEMBL document CHEMBL5291721, “A preclinical secondary pharmacology resource illuminates target-adverse drug reaction associations of marketed drugs” (Nat Commun, 2023).
